Read-outs that look alike come from different tables or passages of the source.
Biological target: FGFR4-WT (Homo sapiens (Human), UniProt P22455)
Test: Omnia assay for potency assessment against FGFR4 enzyme
Assay type: biochemical
Procedure: A 10× stock solution of FGFR4-WT (PR4380C), (from Invitrogen, Carlsbad, Calif.) corresponding to method a in Table 7, was prepared as described below. Alternatively, a 10× stock solution of FGFR4-WT (F01-11G), (SignalChem, Richmond, BC) corresponding to method b in Table 7, was prepared as described below. A solution of 1.4×ATP (AS001A) and 5× Tyr-Sox conjugated peptide substrate (KNZ3101) were prepared in 1× kinase reaction buffer consisting of 20 mM Tris, pH 7.5, 5 mM MgCl2, 1 mM EGTA, 5 mM β-glycerophosphate, 5% glycerol (10× stock, KB002A) and 0.2 mM DTT (DS001A). […] The serially diluted compounds were prepared on a Tecan EVO100. A second addition of 10 μl of Tyr-Sox FGFR4 substrate was added to each well and the kinase reactions were started with the addition of 35 μL of 1.4×ATP. The reactions were monitored every 71 seconds for 240 minutes at λex360/λem485 in a Synergy plate reader from BioTek (Winooski, Vt.).

[1] = method a: [FGFR4-WT]=10 nM (Invitrogen), [ATP]=300 uM, [Y10-Sox]=10 uM
[2] = method b: [FGFR4-WT]=2.5 nM (SignalChem), [ATP]=250 uM, [Y10-Sox]=10 uM

Chain of FGFR4-WT (P22455 22-802): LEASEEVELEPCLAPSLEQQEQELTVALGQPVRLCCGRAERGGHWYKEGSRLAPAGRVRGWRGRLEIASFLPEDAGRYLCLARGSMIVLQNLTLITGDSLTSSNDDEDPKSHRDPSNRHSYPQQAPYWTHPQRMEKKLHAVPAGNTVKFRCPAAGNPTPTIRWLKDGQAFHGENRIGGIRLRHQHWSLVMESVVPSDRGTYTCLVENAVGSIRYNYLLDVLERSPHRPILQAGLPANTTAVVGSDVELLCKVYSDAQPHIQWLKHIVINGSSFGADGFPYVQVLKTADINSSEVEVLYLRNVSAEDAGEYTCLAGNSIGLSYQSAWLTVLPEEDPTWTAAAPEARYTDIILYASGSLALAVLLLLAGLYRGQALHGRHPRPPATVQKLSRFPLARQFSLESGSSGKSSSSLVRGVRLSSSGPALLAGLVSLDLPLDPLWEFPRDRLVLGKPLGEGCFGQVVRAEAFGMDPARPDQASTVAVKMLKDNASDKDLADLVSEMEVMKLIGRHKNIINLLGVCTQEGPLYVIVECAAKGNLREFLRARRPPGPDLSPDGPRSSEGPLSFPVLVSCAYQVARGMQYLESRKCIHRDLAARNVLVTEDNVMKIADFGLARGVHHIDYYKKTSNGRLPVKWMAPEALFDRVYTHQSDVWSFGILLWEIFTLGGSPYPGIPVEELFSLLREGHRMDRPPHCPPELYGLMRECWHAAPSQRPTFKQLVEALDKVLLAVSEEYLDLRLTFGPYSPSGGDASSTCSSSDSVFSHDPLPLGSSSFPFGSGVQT

## C=CC(=O)Nc1ccc(-c2cnn(C)c2)cc1Nc1ncc2c(n1)N(C)C(=O)N(c1cc(OC)cc(OC)c1)C2 [Compound I-27]
[1]
  IC50: < 100 nM

## C=CC(=O)Nc1ccccc1Nc1ncc2c(n1)N(Cc1cccc(C#N)c1)C(=O)N(c1cc(OC)cc(OC)c1)C2 [Compound I-90]
[1]
  IC50: < 100 nM

## C=CC(=O)Nc1ccccc1Nc1ncc2c(n1)N(CC1CC1)C(=O)N(c1cc(OC)cc(OC)c1F)C2 [Compound I-109]
[1]
  IC50: < 100 nM

## C=CS(=O)(=O)Nc1ccccc1Nc1ncc2c(n1)N(C)C(=O)N(c1cc(OC)cc(OC)c1)C2 [Compound I-67]
[1]
  IC50: < 100 nM

## C=CC(=O)NC1CN(c2ccccn2)CC1Nc1ncc2c(n1)N(C)C(=O)N(c1c(Cl)c(OC)cc(OC)c1Cl)C2 (stereo not drawn) [Compound I-202]
[1]
  IC50: < 100 nM

## C=CC(=O)Nc1cc(N2CCCCC2)ccc1Nc1ncc2c(n1)N(C)C(=O)N(c1cc(OC)cc(OC)c1)C2 [Compound I-31]
[1]
  IC50: < 100 nM

## C=CC(=O)Nc1ccccc1Nc1ncc2c(n1)N(Cc1ccn(C)n1)C(=O)N(c1c(Cl)c(OC)cc(OC)c1Cl)C2 [Compound I-136]
[1]
  IC50: < 100 nM

## C=CC(=O)Nc1ccccc1Nc1ncc2c(n1)N(Cc1nccs1)C(=O)N(c1c(Cl)c(OC)cc(OC)c1Cl)C2 [Compound I-91]
[1]
  IC50: < 100 nM

## C=CC(=O)Nc1ccccc1Nc1ncc2c(n1)N(C)C(=O)N(C1CC1)C2 [Compound I-51]
[1]
  IC50: > 1000 nM

## C=CC(=O)NC1CCCCC1Nc1ncc2c(n1)N(CC1CC1)C(=O)N(c1cc(OC)cc(OC)c1Cl)C2 (stereo not drawn) [Compound I-101]
[1]
  IC50: 101 to 500 nM

## C=CC(=O)NCc1ccccc1Nc1ncc2c(n1)N(C)C(=O)N(c1c(Cl)c(OC)cc(OC)c1Cl)C2 [Compound I-181]
[2]
  IC50: < 100 nM

## C=CC(=O)Nc1ccccc1Nc1ncc2c(n1)N(Cc1ccnc(N)c1)C(=O)N(c1c(Cl)c(OC)cc(OC)c1Cl)C2 [Compound I-135]
[1]
  IC50: < 100 nM

## CCC(=O)Nc1ccccc1Nc1ncc2c(n1)N(C)C(=O)N(c1c(Cl)c(OC)cc(OC)c1Cl)C2 [Compound I-235]
[2]
  IC50: 101 to 500 nM

## C=CC(=O)Nc1cc(-c2cnn(C)c2)ccc1Nc1ncc2c(n1)N(C)C(=O)N(c1c(Cl)c(OC)cc(OC)c1Cl)C2 [Compound I-141]
[1]
  IC50: < 100 nM

## C=CC(=O)Nc1cc(N2CCN(C(=O)CCC(=O)O)CC2)ccc1Nc1ncc2c(n1)N(C)C(=O)N(c1c(Cl)c(OC)cc(OC)c1Cl)C2 [Compound I-123]
[1]
  IC50: < 100 nM

## C=CC(=O)Nc1cc(C2=CCN(CC)CC2)ccc1Nc1ncc2c(n1)N(C)C(=O)N(c1cc(OC)cc(OC)c1)C2 [Compound I-56]
[1]
  IC50: < 100 nM

## C=CC(=O)Nc1ccccc1Nc1ncc2c(n1)N(CC(F)F)C(=O)N(c1c(Cl)c(OC)cc(OC)c1Cl)C2 [Compound I-103]
[1]
  IC50: < 100 nM

## C=CC(=O)Nc1ccccc1Oc1ncc2c(n1)N(C)C(=O)N(c1c(Cl)c(OC)cc(OC)c1Cl)C2 [Compound I-65]
[1]
  IC50: < 100 nM

## C=CC(=O)Nc1ccccc1Nc1ncc2c(n1)N(CC1CCN(C(=O)OC(C)(C)C)CC1)C(=O)N(c1cc(OC)cc(OC)c1)C2 [Compound I-60]
[1]
  IC50: < 100 nM

## C=CC(=O)Nc1cc(CN2CCN(CC)CC2)ccc1Nc1ncc2c(n1)N(C)C(=O)N(c1cc(OC)cc(OC)c1)C2 [Compound I-122]
[1]
  IC50: 101 to 500 nM

## C=CC(=O)Nc1ccc(C)cc1Nc1ncc2c(n1)N(C)C(=O)N(c1cc(OC)cc(OC)c1)C2 [Compound I-49]
[1]
  IC50: < 100 nM

## C=CC(=O)Nc1ccccc1Nc1ncc2c(n1)N(Cc1csc(C)n1)C(=O)N(c1c(Cl)c(OC)cc(OC)c1Cl)C2 [Compound I-134]
[1]
  IC50: < 100 nM

## C=CC(=O)N[C@@H]1CCCC[C@@H]1Nc1ncc2c(n1)N(Cc1ccccc1)C(=O)N(c1c(Cl)c(OC)cc(OC)c1Cl)C2 [Compound I-66]
[1]
  IC50: > 1000 nM

## C=CC(=O)NC1CNC(=O)CC1Nc1ncc2c(n1)N(C)C(=O)N(c1c(Cl)c(OC)cc(OC)c1Cl)C2 (stereo not drawn) [Compound I-196]
[1]
  IC50: < 100 nM

## C=CC(=O)Nc1cc(N2CCN(CC)CC2)ccc1Nc1ncc2c(n1)N(C)C(=O)N(c1cc(OC)cc(OC)c1)C2 [Compound I-15]
[2]
  IC50: < 100 nM

## C=CC(=O)Nc1cc(-c2nccs2)ccc1Nc1ncc2c(n1)N(C)C(=O)N(c1cc(OC)cc(OC)c1)C2 [Compound I-84]
[1]
  IC50: 501 to 999 nM

## C=C(C)C(=O)Nc1ccccc1Nc1ncc2c(n1)N(C)C(=O)N(c1c(Cl)c(OC)cc(OC)c1Cl)C2 [Compound I-142]
[1]
  IC50: < 100 nM

## C=CC(=O)Nc1ccccc1Nc1ncc2c(n1)N(C)C(=O)N(c1cc(OC)cc(OC)c1Cl)C2 [Compound I-75]
[1]
  IC50: < 100 nM

## C=CC(=O)Nc1ccccc1Nc1ncc2c(n1)N(C)C(=O)N(c1ccccc1)C2 [Compound I-38]
[1]
  IC50: 501 to 999 nM

## C=CC(=O)Nc1cc(OCCOC)ccc1Nc1ncc2c(n1)N(Cc1ccccc1)C(=O)N(c1cc(OC)cc(OC)c1)C2 [Compound I-14]
[2]
  IC50: < 100 nM

## C=CC(=O)Nc1ccccc1Nc1ncc2c(n1)N(CC)C(=O)N(CC)C2 [Compound I-120]
[1]
  IC50: > 1000 nM

## C=CC(=O)Nc1ccc(-c2cnn(C)c2)cc1Nc1ncc2c(n1)N(C)C(=O)N(c1c(Cl)c(OC)cc(OC)c1Cl)C2 [Compound I-74]
[1]
  IC50: < 100 nM

## C=CC(=O)Nc1ccccc1Nc1ncc2c(n1)N(CC(=O)OC(C)(C)C)C(=O)N(c1cc(OC)cc(OC)c1)C2 [Compound I-96]
[1]
  IC50: > 1000 nM

## C=CC(=O)Nc1cc(C(=O)NC2CCN(C)CC2)ccc1Nc1ncc2c(n1)N(C)C(=O)N(c1c(Cl)c(OC)cc(OC)c1Cl)C2 [Compound I-150]
[1]
  IC50: < 100 nM

## C=CC(=O)Nc1ccc(N2CCN(CC)CC2)cc1Nc1ncc2c(n1)N(C)C(=O)N(c1cc(OC)cc(OC)c1)C2 [Compound I-30]
[1]
  IC50: < 100 nM

## C=CC(=O)Nc1ccccc1Nc1ncc2c(n1)N(CC1CC1)C(=O)N(c1c(Cl)c(OC)cc(OC)c1Cl)C2 [Compound I-130]
[1]
  IC50: < 100 nM

## C=CCN1C(=O)N(c2cc(OC)cc(OC)c2)Cc2cnc(Nc3ccccc3NC(=O)C=C)nc21 [Compound I-32]
[1]
  IC50: < 100 nM

## C=CC(=O)N[C@H]1CCCC[C@H]1Nc1ncc2c(n1)N(Cc1cn[nH]c1)C(=O)N(c1c(Cl)c(OC)cc(OC)c1Cl)C2 [Compound I-152]
[1]
  IC50: < 100 nM

## C=CC(=O)Nc1cc(-c2cnn(C)c2)ccc1Nc1ncc2c(n1)N(C)C(=O)N(c1cc(OC)cc(OC)c1)C2 [Compound I-77]
[1]
  IC50: < 100 nM

## C=CC(=O)Nc1ccc(-c2nccs2)cc1Nc1ncc2c(n1)N(C)C(=O)N(c1cc(OC)cc(OC)c1)C2 [Compound I-78]
[1]
  IC50: < 100 nM

## C=CC(=O)Nc1cc(-c2nnn(C)n2)ccc1Nc1ncc2c(n1)N(C)C(=O)N(c1c(Cl)c(OC)cc(OC)c1Cl)C2 [Compound I-145]
[1]
  IC50: < 100 nM

## C=CC(=O)N[C@H]1CCCC[C@H]1Nc1ncc2c(n1)N(Cc1ccn(C)n1)C(=O)N(c1c(Cl)c(OC)cc(OC)c1Cl)C2 [Compound I-147]
[1]
  IC50: < 100 nM

## C=CC(=O)Nc1cc(Cl)c(Cl)cc1Nc1ncc2c(n1)N(Cc1ccccc1)C(=O)N(c1c(Cl)c(OC)cc(OC)c1Cl)C2 [Compound I-11]
[2]
  IC50: 501 to 999 nM

## C=CC(=O)N(C)c1ccccc1Nc1ncc2c(n1)N(Cc1ccccc1)C(=O)N(c1c(Cl)c(OC)cc(OC)c1Cl)C2 [Compound I-37]
[1]
  IC50: 101 to 500 nM

## C=CCCN1C(=O)N(c2cc(OC)cc(OC)c2)Cc2cnc(Nc3ccccc3NC(=O)C=C)nc21 [Compound I-57]
[1]
  IC50: < 100 nM

## C=CC(=O)Nc1cc(C(F)(F)F)ccc1Nc1ncc2c(n1)N(Cc1ccccc1)C(=O)N(c1c(Cl)c(OC)cc(OC)c1Cl)C2 [Compound I-10]
[2]
  IC50: > 1000 nM

## C=CC(=O)Nc1ccccc1Nc1ncc2c(n1)N(C1CC1)C(=O)N(c1cc(OC)cc(OC)c1)C2 [Compound I-34]
[1]
  IC50: < 100 nM

## C=CC(=O)Nc1ccccc1Nc1ncc2c(n1)N(Cc1ccc(Cl)c(OC)c1)C(=O)N(c1c(Cl)c(OC)cc(OC)c1Cl)C2 [Compound I-24]
[2]
  IC50: < 100 nM

## C=CC(=O)Nc1ccccc1Nc1ncc2c(n1)N(CC1CCNCC1)C(=O)N(c1cc(OC)cc(OC)c1)C2 [Compound I-40]
[1]
  IC50: < 100 nM

## C=CC(=O)Nc1cc(C2CCN(CC)CC2)ccc1Nc1ncc2c(n1)N(C)C(=O)N(c1cc(OC)cc(OC)c1)C2 [Compound I-54]
[1]
  IC50: < 100 nM

## C=CC(=O)Nc1ccccc1Nc1ncc2c(n1)N(C)C(=O)N(c1cc(OC)cc(OC)c1F)C2 [Compound I-108]
[1]
  IC50: < 100 nM

## C=CC(=O)N(C)c1ccccc1Nc1ncc2c(n1)N(C)C(=O)N(c1c(Cl)c(OC)cc(OC)c1Cl)C2 [Compound I-29]
[1]
  IC50: 101 to 500 nM

## C=CC(=O)N[C@H]1CCCC[C@H]1Nc1ncc2c(n1)N(Cc1ccccc1)C(=O)N(c1c(Cl)c(OC)cc(OC)c1Cl)C2 [Compound I-82]
  IC50: < 100 nM

## C=CC(=O)Nc1ccccc1Nc1ncc2c(n1)N(Cc1ccc(F)c(N)c1)C(=O)N(c1c(Cl)c(OC)cc(OC)c1Cl)C2 [Compound I-144]
[1]
  IC50: < 100 nM

## C=CC(=O)Nc1cc(N2CCOCC2)ccc1Nc1ncc2c(n1)N(C)C(=O)N(c1cc(OC)cc(OC)c1)C2 [Compound I-17]
[1]
  IC50: < 100 nM

## C=CC(=O)Nc1ccccc1Nc1ncc2c(n1)N(C1CC1)C(=O)N(c1c(Cl)c(OC)cc(OC)c1Cl)C2 [Compound I-23]
[2]
  IC50: < 100 nM

## C=CC(=O)Nc1ccccc1Nc1ncc2c(n1)N(C)C(=O)N(c1c(Cl)c(OC)cc(OC)c1Cl)C2 [Compound I-2]
[2]
  IC50: < 100 nM

## COc1cc(OC)cc(N2Cc3cnc(Nc4ccccc4)nc3N(C)C2=O)c1 [Compound I-237]
[1]
  IC50: 101 to 500 nM

## C=CC(=O)NC1CCCCC1Nc1ncc2c(n1)NC(=O)N(c1c(Cl)c(OC)cc(OC)c1Cl)C2 (racemic) [Compound I-73]
[1]
  IC50: 101 to 500 nM

## C=CC(=O)N[C@H]1CCCC[C@H]1Nc1ncc2c(n1)N(C)C(=O)N(c1ccc(OC)cc1)C2 [Compound I-222]
[1]
  IC50: > 1000 nM
